Experimental data from patent US10391115B2, “Anticancer adjuvant composition containing RIP3 expression promoter as active ingredient, method for screening for anticancer adjuvant enhancing sensitivity of anticancer drug by promoting RIP3 expression, and method for monitoring sensitivity of anticancer drug” (AJOU UNIVERSITY INDUSTRY-ACADEMIC COOPERATION FOUNDATION, priority 2014, dated 2019).

Legend:
[1] = system: HT-29 cells; experiment: Viability assay (MTT) of RIP3-silenced HT-29 cells with anticancer drugs; assay type: cell-based, human; details: doxorubicin 2.5 and 5 uM, etoposide 50 and 100 uM, 48 hours
Method: HT-29 cells (American Tissue Culture Collection) were cultured in a 37° C. incubator using DMEM medium supplemented with penicillin-streptomycin (10 IU/ml) and 10% FBS. The shRNAi double strand used in the present invention was commercially synthesized by Sigma-Aldrich. The shRNA used in the present invention was designed so as to target the coding region of a human RIPK3 mRNA sequence (NCBI Reference sequence NM_006871).
First, cultured HT-29 cells were dispensed in a 35-mm dish at a density of 2×10^5 cells. On the next day, the cells were infected with shRNA particles together with polybrene (10 ug/ml) according to the protocol's instruction.
In the present invention, in order to examine whether the RIP3 gene is associated with anticancer drug sensitivity, HT-29 cells infected with RIP3 shRNA were treated with varying concentrations of doxorubicin and etoposide, and then the cell viability of the cancer cells was measured. Particularly, HT-29 cells infected with RIP3 shRNA were treated with 2.5 uM and 5 uM of doxorubicin and 50 uM and 100 uM of etoposide, and then incubated for 48 hours. After the medium was replaced with a fresh medium containing 0.1 mg of MTT (3-([4,5-dimethylthiazol-2-yl]-2,5-diphenyltetrazolium bromide), the cells were further incubated for 2 hours. Colorimetric analysis was performed on a precipitate obtained by reducing a tetrazolium salt, in which viable cells is dissolved, into purple formazan crystal. Next, the medium was removed, and the produced formazan crystal was dissolved in 500 ul of DMSO, and the absorbance was measured using an ELISA reader at 570 nm. Cell viability was expressed as a percentage relative to the control taken as 100% viability.

[2] = system: T47D breast cancer cells; experiment: Viability assay (MTT) of RIP3-silenced T47D cells with anticancer drugs; assay type: cell-based, human; details: 48 hours; for anticancer drug resistance (MTT assay): RIP3-knocked down T47D test group vs control group; for cell killing (MTT assay): control group T47D
Method: In order to examine whether RIP3 also has an effect on breast cancer cells, RIP3-expressing T47D cells were used. First, the cells were infected with RIP3 in the same manner as described in Example 6.
In order to examine whether RIP3 increases anticancer drug sensitivity in T47D breast cancer cells, an MTT assay was performed. A control group and a RIP3-knocked down test group were incubated with doxorubicin, etoposide and taxol at the concentrations shown in FIG. 11 (right) for 48 hours.

[3] = system: RIP3 expression in cancer cell lines (HeLa, MDA-MB231, BT549); experiment: RIP3 expression by demethylating agent 5-AD, Western blotting; assay type: cell-based; details: MDA-MB231, BT549 that express no RIP3, 5-AD 2 uM, treated two times for 4 days
Method: (§1) Cells were lysed in M2 buffer. Equal amounts of cell extracts were analyzed by SDS-PAGE and immunoblotting, and blots were visualized by enhanced chemiluminescence (ECL, Amersham).

[4] = system: HeLa cell line (non-target / shRIP3); experiment: Sensitization by 5-AD plus anticancer drug in non-target and shRIP3 HeLa cell lines (immunoblotting, MTT assay); assay type: cell-based, human
Method: A MISSION short-hairpin RNA (shRNA) plasmid that targets the coding region or 3′ UTR of hRIP3 mRNA (NM_006871) or a non-target control sequence (NM-027088) were obtained from Sigma-Aldrich. A Lentivirus plasmid was transfected into 293T cells (System Biosciences, LV900A-1) using Lipofectamine 2000 (Invitrogen, 11668019). Pseudoviral particles were collected at 2 days after transfection of the Lentivirus plasmid and infected into various cancer cells in the presence of polybrene (10 μg/mL). At 2 days after infection, infected cells were selected with puromycin, and RIP3 knockdown was confirmed by immunoblotting. Cells without endogenous RIP3 were afterwards treated with 5-AD for 4 days and analyzed by immunoblotting.
Unlike a non-target cell line, in the case of a shRIP3 cell line, RIP3 expression in the cell line was inhibited by shRNA, even though the cell line was treated with 5-AD. Thus, the effect of RIP3 on sensitization of the cell line by a combined treatment with the anticancer drug and the demethylating agent could be confirmed. […] In addition, after the same number of cells seeded, the sensitization effect by the combined treatment with the anticancer drug was analyzed using a cell viability assay (MTT assay) (FIG. 6).
Because the demethylating agent (5-AD or 5-AZA) is not a specific drug for a certain protein, it may cause expression of various proteins in addition to RIP3.

[5] = system: HeLa cell lines; experiment: Sensitization of cancer cell death by combined treatment with demethylating agent and anticancer drug; details: pretreated two times for 4 days to induce RIP3 expression, then anticancer drug
[6] = system: RIP3 expression in DLD-1 colorectal cancer cell line; experiment: RIP3 expression by demethylating agent 5-AZA, Western blotting; assay type: cell-based; details: DLD-1 not expressing RIP3; various concentrations of 5-AZA, treated two times for 4 days
Method: as §1

[7] = RIP3 knocked down with shRNA HT-29
[8] = control group (non-target shRNA) HT-29

Compound	cell viability (MTT) [1, 7]	cell viability (MTT) [1, 8]	anticancer drug resistance (MTT assay) [2]	cell killing (MTT assay) [2]	sensitization to cell death by anticancer drug after demethylating agent pretreatment [5]	other results
COc1cc([C@@H]2c3cc4c(cc3[C@@H](O[C@@H]3O[C@@H]5CO[C@@H](C)O[C@H]5[C@H](O)[C@H]3O)[C@H]3COC(=O)[C@H]23)OCO4)cc(OC)c1O [etoposide]	the cell viability increased compared to that of the control group	the cell viability decreased dependently on the concentration	significantly increased compared to that of the control group	killed dependently on the concentration		
COc1cccc2c1C(=O)c1c(O)c3c(c(O)c1C2=O)C[C@@](O)(C(=O)CO)C[C@@H]3O[C@H]1C[C@H](N)[C@H](O)[C@H](C)O1 [doxorubicin]	the cell viability increased compared to that of the control group	the cell viability decreased dependently on the concentration	significantly increased compared to that of the control group	killed dependently on the concentration		
CC(=O)O[C@H]1C(=O)[C@@]2(C)[C@H]([C@H](OC(=O)c3ccccc3)[C@]3(O)C[C@H](OC(=O)[C@H](O)[C@@H](NC(=O)c4ccccc4)c4ccccc4)C(C)=C1C3(C)C)[C@]1(OC(C)=O)CO[C@@H]1C[C@@H]2O [taxol]			significantly increased compared to that of the control group	killed dependently on the concentration		
Nc1ncn([C@H]2C[C@H](O)[C@@H](CO)O2)c(=O)n1 [5-AD, 5-aza-2′-deoxycytidine]					sensitized to anticancer drug	RIP3 expression (Western blotting) [3]: RIP3 expression was induced; sensitization of cancer cell death by combined treatment with anticancer drug ([4]; non-target HeLa cell line, 5-AD treated two times for 4 days): showed the effect of sensitizing the cancer cell death by RIP3 expression; sensitization of cancer cell death by combined treatment with anticancer drug (cell viability assay) ([4]; shRIP3 HeLa cell line that expresses no RIP3): the sensitization effect was inhibited; RIP3 expression after 5-AD treatment ([4]; shRIP3 HeLa cell line, 5-AD treated two times for 4 days): RIP3 was not expressed
Nc1ncn([C@@H]2O[C@H](CO)[C@@H](O)[C@H]2O)c(=O)n1 [5-AZA, 5-azacytidine]					the effect of sensitizing the cancer cell line to cell death was obtained	RIP3 expression (Western blotting) [6]: RIP3 expression was induced
